Consider 3 compounds from patent US9809550B2, “Quinolyl hydrazones for the treatment of tuberculosis and related diseases” (TECNIMEDE SOCIEDADE TECNICO-MEDICINAL S.A., priority 2012, dated 2017).

For this assay, the system named is Mycobacterium smegmatis. Kind of assay: In vitro Mycobacterium smegmatis growth inhibition assay (suspension turbidity). It counts as cell-based. To be noted: for pIC50: Mycolicibacterium smegmatis, four parameter curve fit of the 96 hours growth data, read-out: IC50 (concentration to inhibit 50% of the Mycobacterium smegmatis growth); for Inhibitory activity against Mycobacterium smegmatis growth, in words, compared with RMP: versus active control RMP.

pIC50: −log10 of the molar value.

With `Oc1ccc(Br)cc1C=NNc1ccc2ccccc2n1` [Compound no. 76, 5-bromo-2-hydroxybenzaldehyde 2-quinolinylhydrazone], the pIC50 was 4.79 and the “Inhibitory activity against Mycobacterium smegmatis growth, in words, compared with RMP” value (shortened to “Inhibitory activity … compared with RMP”) is listed as “better IC50 values than RMP”. In addition, the “% of Celular Growth at 96 hours” value (concentration 1.23 uM) is given as 118.35%. For the same compound, the “% of Celular Growth at 96 hours” value (concentration 3.70 uM) turned out to be 113.44%. Moreover, the “% of Celular Growth at 96 hours” value (concentration 11.11 uM) came to 121.72%. In addition, for the setting “concentration 33.33 uM”, the “% of Celular Growth at 96 hours” value stood at 43.92%. Further, the “% of Celular Growth at 96 hours” value (concentration 100.00 uM) is on record as 51.50%.
In the case of “3,5-dibromo-2-hydroxybenzaldehyde (2-pyridinyl)hydrazine [Compound no. 42]”, the “Inhibitory activity … compared with RMP” value is given as “superior inhibitory activity”.
For `Cc1cc(NN=Cc2ccccc2O)nc2ccccc12` [Compound no. 77, 2-hydroxybenzaldehyde-(4-methyl-2-quinolinyl)hydrazone], the pIC50 is 5.18 and the “Inhibitory activity … compared with RMP” value is given as “better IC50 values than RMP”. Moreover, for the setting “concentration 1.23 uM”, the “% of Celular Growth at 96 hours” value is recorded as 77.17%. Where the note is “concentration 3.70 uM”, the “% of Celular Growth at 96 hours” value is 57.42%. For the same compound, the “% of Celular Growth at 96 hours” value (concentration 11.11 uM) was 29.14%. The “% of Celular Growth at 96 hours” value (concentration 33.33 uM) came to 22.41%. Moreover, the “% of Celular Growth at 96 hours” value (concentration 100.00 uM) was 34.09%.
